Assay results from patent US5620997A, “Isothiazolones” (Warner-Lambert Company, priority 1995, dated 1997).
“Also recorded” adds a separate entry of the source.

How the values were obtained:
[1] = CEM cell assay, toxicity (growth inhibition); format: cell-based; settings: human, cem cells; Toxic concentration which inhibits the growth of cells 50% relative to control; read-out: CEM Cell Assay TC50
Description: T4 lymphocytes (CEM cell line) are exposed to HIV at a virus to cell ratio approximately 0.05, and plated along with noninfected control cells in 96-well microliter plates. Candidate agent is dissolved in dimethyl sulfoxide (unless otherwise noted), then diluted 1:200 in cell culture medium. Further dilutions (half-log10) are prepared before adding to an equal volume of medium containing either infected or noninfected cells. Cultures are incubated at 37° in a 5% carbon dioxide atmosphere for 6 or 7 days. The tetrazolium salt, XTT, is added to all wells, and cultures are incubated to allow formazan color development by viable cells J. National Cancer Institute, 1989;81:577-586. Individual wells are analyzed spectrophotometrically to quantitate formazan production, and in addition are viewed microscopically for detection of viable cells confirmation of protective activity. Drug-tested virus-infected cells are compared with drug-treated noninfected cells and with other appropriate controls (untreated infected and untreated noninfected cells, drug-contain wells without cells, etc.) on the same plate. Data are reviewed in comparison with other tests done at the same time and a determination about activity is made.

[2] = molecular target: T1, HIV-1 Nucleocapsid Protein (NCp7) (Human immunodeficiency virus type 1 group M subtype B, UniProt P12493); experiment: Fluorescence-based (TSQ) assay of zinc ejection from purified HIV-1 NCp7; format: biochemical; settings: 10 μM compound, 2.8 μM NCp7, 47 μM TSQ, pH 7.4, 26° C., 90 minutes
T1 construct: The NCp7 protein containing 2 Zn-fingers and 2 Zn ions
Text: The compounds of the present invention cause the extrusion of zinc from the nucleocapsid protein (NCp7) of HIV-1. The NC protein is highly conserved among all retroviruses (South T., Blake P., et al., Biochemistry, 1990;;29:7786) and is essential for viral infectivity (Aldovini A. and Young R., J. Virology, 1990;64:1920 and Gorelick R., Nigida S., et al., J. Virology, 1990;64:3207). The zinc is normally held in NC proteins by 1 or 2 zinc fingers. In the case of HIV-1, 2 zinc fingers are present (Summers M., South T., et al., Biochemistry, 1990;29:329) and are involved specifically with the PSI site on viral RNA which controls the packaging of viral RNA. Interference of this packaging causes the formation of non-infectious virions (Dannull J., Surovoy A., et al., EMBO, 1994;13:1525). It has previously been shown that compounds that cause zinc extrusion have potent anti-HIV activity in multiple cell lines and against all retroviruses (Rice W., Schaeffer C., et al., Nature, 1993;361:473).
A fluorescence-based assay has been developed to monitor the ejection of zinc from purified HIV-1 NCp7. The fluorophore, N-(6-methoxy-8-quinolyl)-p-toluenesulfonamide (TSQ), has an increased fluorescent signal upon bonding zinc ion in solution. The NCp7 protein containing 2 Zn-fingers and 2 Zn ions is incubated with drug causing the extrusion of Zn ions. The released Zn is then sequestered by the TSQ and the increased fluorescence monitored relative to control. The assay was performed as follows: 10 μM compound was added to 2.8 μM NCp7 and 47 μM TSQ in 20 μL of pH 7.4 buffer at 26° C. for 90 minutes. Fluorescence (excitation 355 nm emission 400 nm) was monitored versus time. Controls were the NCp7 under assay conditions without drug, and apo NCp7 (no Zn) with drug. The % Zn extrusion was calculated based on the actual fluorescence measured divided by the fluorescence of all theoretical Zn extruded (5.6 μM)×100.
Table 1 below presents the results of testing several of the invention compounds in zinc extrusion assay described above. The compounds were evaluated for their ability to cause the extrusion of zinc from nucleocapsid protein NCp7 (expressed as % relative to control).

NCp7 = molecular target: T2, NCp7 (Human immunodeficiency virus type 1 (NEW YORK-5 ISOLATE), UniProt P12493); experiment: Electrospray ionization mass spectral analysis of NCp7 with compound; format: binding, HIV-1; settings: 40 μM NCp7, ammonium acetate buffer pH 6, 320 μM compound, 3 minutes
T2 construct: same protein as the TSQ zinc-ejection assay
Description: Electrospray ionization mass spectral analysis was also performed. Using 40 μM NCp7 in ammonium acetate buffer at pH 6, 320 μM 4-(3-oxo-3h-benzo[d]isothiazol-2-yl)benzenesulfonamide (Example 1) in acetonitrile was added. […] In addition, a peak at 6740 corresponding to the NCp7+308+Zn appeared.

HIV = experiment: CEM cell assay, anti-HIV activity (XTT, protection from viral cytopathic effects); format: cell-based; settings: Human immunodeficiency virus 1, CCRF-CEM; Effective concentration which protects cells from viral cytopathic effects
Text: The test systems utilized to establish the cellular antiviral activity of the isothiazolones of Formula I are well recognized in the art and are routinely employed for such purpose. For example, the assay utilized to evaluate the compounds activity against the HIV virus is that employed by the U.S. National Cancer Institute as described by Weislow O. S., et al., J. Natl. Cancer Inst., 1989;81:577-586, incorporated herein by reference.
The procedure is designed to detect agents acting at any stage of the virus reproductive cycle. The assay basically involves the killing of T4 lymphocytes by HIV. Small amounts of HIV are added to cells, and at least two complete cycles of virus reproduction are necessary to obtain the required cell killing. Agents which interact with virions, cells, or virus gene-products to interfere with viral activities will protect cells from cytolysis. The system is automated in several features to accommodate large numbers of candidate agents, and is generally designed to detect anti-HIV activity. However, compounds which degenerate or are rapidly metabolized in the culture conditions may not show activity in this screen.
Yet another test system employed to determine antiviral activity is called the CEM cell assay.
T4 lymphocytes (CEM cell line) are exposed to HIV at a virus to cell ratio approximately 0.05, and plated along with noninfected control cells in 96-well microliter plates.
Candidate agent is dissolved in dimethyl sulfoxide (unless otherwise noted), then diluted 1:200 in cell culture medium. Further dilutions (half-log10) are prepared before adding to an equal volume of medium containing either infected or noninfected cells.
Cultures are incubated at 37° in a 5% carbon dioxide atmosphere for 6 or 7 days. The tetrazolium salt, XTT, is added to all wells, and cultures are incubated to allow formazan color development by viable cells J. National Cancer Institute, 1989;81:577-586. Individual wells are analyzed spectrophotometrically to quantitate formazan production, and in addition are viewed microscopically for detection of viable cells confirmation of protective activity.
Drug-tested virus-infected cells are compared with drug-treated noninfected cells and with other appropriate controls (untreated infected and untreated noninfected cells, drug-contain wells without cells, etc.) on the same plate. Data are reviewed in comparison with other tests done at the same time and a determination about activity is made.

For `NS(=O)(=O)c1ccc(-n2sc3ccccc3c2=O)cc1` [Example 1, 4-(3-Oxo-3h-benzo[d]isothiazol-2-yl)-benzenesulfonamide], the CC50 [1] was 21 µM, the “% Zn Extrusion Relative to Control” value [2] was 100% and the “Zinc extrusion and covalent adduct formation by electrospray mass spectrometry” value (NCp7) was “a mass peak at 6360 (100%) corresponding to apo NCp7 (loss of 2 Zn) appeared; also recorded: the extrusion of zinc and the formation of a covalent bond between the cysteine of the zinc finger and the isothiazolone”. It also gave an EC50 (HIV) of 5.1 µM.
